Our source for the inhibition of growth and Observed efficacy values is patent US20210084902A1, “FUNGICIDAL MIXTURE COMPRISING SUBSTITUTED 3-PHENYL-5-(TRIFLUOROMETHYL)-1,2,4-OXADIAZOLES” (BASF SE, priority 2017, published 2021).

What all share (assay type): cell-based
The test system of one experiment is Botrytis cinerea. Put plainly: Fungicidal activity against Botrytis cinerea, micro titer plate (MTP) test.
For experiment [1], the system named is Colletotrichum orbiculare. The experiment can be described thus: Fungicidal activity against Colletotrichum orbiculare in the microtiterplate test.
The test system of another experiment is Leptosphaeria nodorum. The experiment can be described thus: Fungicidal activity against Leptosphaeria nodorum, microtiter plate (MTP) test.
Another experiment has as its system Pyricularia oryzae. The experiment can be described thus: microbe, parasite or virus in culture. Particulars: for Observed efficacy: single compound.
For a further experiment, the system named is Septoria tritici. The experiment can be described thus: Fungicidal activity against Septoria tritici, micro titer plate (MTP) test. Particulars: for inhibition of growth at […] / inhibition of growth at 1 ppm / inhibition of growth at 4 ppm / inhibition of growth at 16 ppm: Zymoseptoria tritici, 168 h, read-out: Observed efficacy.
Setting [2] is: Botrytis cinerea, 168 h, component B alone, read-out: Observed efficacy.
Setting [3] is: Parastagonospora nodorum, 168 h, 0.063 ppm, read-out: Observed efficacy.
[4] abbreviates: Pyricularia oryzae, 168 h, read-out: Observed efficacy.
The mark [5] stands for this setting: Botrytis cinerea, 168 h, component B alone, 0.25 ppm, read-out: Observed efficacy.
[6] abbreviates: Table V.4, component B alone, 0.063 ppm.
Setting [7] is: Colletotrichum orbiculare, 0.25 ppm, read-out: Observed efficacy.
The mark [8] stands for this setting: Colletotrichum orbiculare, 1 ppm, read-out: Observed efficacy.
Where [9] appears, read: Parastagonospora nodorum, 168 h, read-out: Observed efficacy.
Setting [10] is: Table V.4, component B alone, 0.25 ppm.
Setting [11] is: Parastagonospora nodorum, 168 h, 0.25 ppm, read-out: Observed efficacy.
The mark [12] stands for this setting: Table V.4, component B alone, 4 ppm.
Setting [13] is: Table V.4, component B alone, 16 ppm.
[14] abbreviates: Colletotrichum orbiculare, read-out: Observed efficacy.
Where [15] appears, read: Colletotrichum orbiculare, 0.016 ppm, read-out: Observed efficacy.
[16] abbreviates: Colletotrichum orbiculare, 0.063 ppm, read-out: Observed efficacy.

Molecules are shown by their SMILES. Like-named read-outs stand apart in the source and are kept apart here.

For the compound `CNC(=O)C(=N/OC)/C(C)=C\COc1ccn(-c2ccc(Cl)cc2Cl)n1` [A.1.34, (Z,2E)-5-[1-(2,4-dichlorophenyl)pyrazol-3-yl]-oxy-2-methoxyimino-N,3-dimethyl-pent-3-enamide], the inhibition of growth at 16 ppm with Botrytis cinerea (setting [2]) was determined as 2%. Also, the inhibition of growth at 63 ppm in the experiment on Botrytis cinerea (Botrytis cinerea, 168 h, component B alone, 63 ppm, read-out: Observed efficacy) came out at 18%. Besides, the inhibition of growth at 6.3e-05 ppm in experiment [1] (Colletotrichum orbiculare, 0.000063 ppm, read-out: Observed efficacy) came to 37%. In the experiment with Leptosphaeria nodorum (setting [3]), the inhibition of growth at […] was 45%.

For the compound `Cn1nc(C(F)F)c(C(=O)Nc2ccccc2Oc2ccc(C(F)(F)F)cc2Cl)c1F` [A.3.29, N-[2-[2-chloro-4-(trifluoromethyl)phenoxy]phenyl]-3-(difluoromethyl)-5-fluoro-1-methyl-pyrazole-4-carboxamide], the inhibition of growth at 1 ppm in the experiment on Pyricularia oryzae (setting [4]) worked out at 14%; in experiment [1] (setting [8]), 11%. In addition, the inhibition of growth at […] in the experiment on Botrytis cinerea (setting [5]) stood at 55%; with Septoria tritici (setting [6]), 68%; in experiment [1] (setting [7]) it was 4%.

As to `COC(=O)[C@@H](C)N(C(=O)Cc1ccccc1)c1c(C)cccc1C` [Benalaxyl-M, benalaxyl-M], the Observed efficacy in the experiment on Pyricularia oryzae (1 ppm) was determined as 3; in the experiment on Pyricularia oryzae (4 ppm), 12; with Botrytis cinerea (component B alone, 4 ppm), 7%; in experiment [1] (1 ppm), 2.

Consider `CCCCNC(=O)n1c(NC(=O)OC)nc2ccccc21` [Benomyl, benomyl], for which the inhibition of growth at […] with Botrytis cinerea (Botrytis cinerea, 168 h, component B alone, 0.016 ppm, read-out: Observed efficacy) worked out at 8%. Also, the inhibition of growth at 9 ppm in experiment [1] (Colletotrichum orbiculare, 9 ppm, read-out: Observed efficacy) came out at 38%. Further, the inhibition of growth at 1 ppm in the experiment with Leptosphaeria nodorum (setting [9]) was determined as 15%.

On to `O=C(Nc1ccccc1-c1ccc(Cl)cc1)c1cccnc1Cl` [Boscalid, boscalid], for which the inhibition of growth at 4 ppm in the experiment with Pyricularia oryzae (setting [4]) came to 5%. Moreover, the inhibition of growth at 1 ppm in the experiment with Septoria tritici (Table V.4, component B alone) was 61%; in experiment [1] (setting [8]), 0%. For the same compound, in experiment [1] (setting [7]), the inhibition of growth at […] is 0%.

As for `O=C1C2CC=CCC2C(=O)N1SC(Cl)(Cl)Cl` (centres unmarked) [Captan, captan], the results for the inhibition of growth at 1 ppm in the experiment with Pyricularia oryzae (setting [4]), in the experiment with Botrytis cinerea (setting [2]) and in the experiment on Leptosphaeria nodorum (setting [9]) were 53%, 73% and 44%, respectively. For the same compound, the inhibition of growth at […] was determined as 20% in the experiment on Botrytis cinerea (setting [5]), 22% in the experiment with Septoria tritici (setting [10]), 21% in experiment [1] (setting [7]) and 13% in the experiment with Leptosphaeria nodorum (setting [11]).

For `N#Cc1c(Cl)c(Cl)c(Cl)c(C#N)c1Cl` [Chlorothalonil, chlorothalonil], the inhibition of growth at 1 ppm was 22% in the experiment on Botrytis cinerea (setting [2]) and 72% in the experiment on Leptosphaeria nodorum (setting [9]). The inhibition of growth at […] in the experiment with Septoria tritici (setting [10]) came to 25%.

Regarding `Cc1ccc(-c2c(Cl)nc(C#N)n2S(=O)(=O)N(C)C)cc1` [Cyazofamid, cyazofamid], the inhibition of growth at 4 ppm was 13% in the experiment on Pyricularia oryzae (setting [4]) and 2% in the experiment on Septoria tritici (setting [12]). In addition, the inhibition of growth at 16 ppm in the experiment with Septoria tritici (setting [13]) stood at 8%. Besides, in the experiment with Leptosphaeria nodorum (setting [11]), the inhibition of growth at […] was found to be 6%.

Consider `Cc1cc(C2CC2)nc(Nc2ccccc2)n1` [Cyprodinil, cyprodinil], for which the inhibition of growth at 1 ppm with Pyricularia oryzae (setting [4]) came to 56%; in the experiment with Botrytis cinerea (setting [2]) it was 66%; in experiment [1] (setting [8]), 35%. Moreover, the inhibition of growth at 4 ppm in experiment [1] (setting [14]) was 38%. For the same compound, the inhibition of growth at 0.004 ppm in the experiment with Leptosphaeria nodorum (Parastagonospora nodorum, 168 h, 0.004 ppm, read-out: Observed efficacy) is 71%.

For the compound `CC1COC(Cn2cncn2)(c2ccc(Oc3ccc(Cl)cc3)cc2Cl)O1` (centres unmarked) [Difenoconazol, difenoconazole], the inhibition of growth at […] came to 4% in the experiment on Septoria tritici (Table V.4, component B alone, 0.016 ppm); 1% in experiment [1] (setting [15]); 14% in experiment [1] (setting [7]); 41% with Leptosphaeria nodorum (setting [3]).

`COc1ccc(C(=CC(=O)N2CCOCC2)c2ccc(Cl)cc2)cc1OC` [Dimethomorph, dimethomorph]: the inhibition of growth at 1 ppm in the experiment with Pyricularia oryzae (setting [4]) was 4%. The inhibition of growth at 4 ppm with Pyricularia oryzae (setting [4]) came out at 8%; with Septoria tritici (setting [12]), 11%; in experiment [1] (setting [14]), 21%; with Leptosphaeria nodorum (setting [9]), 41%.

`CC(Cc1ccc(C(C)(C)C)cc1)CN1CCCCC1` (centres unmarked) [Fenpropidin, fenpropidin]: the inhibition of growth at 4 ppm was 28% in the experiment with Botrytis cinerea (Botrytis cinerea, 168 h, component B alone, 4 ppm, read-out: Observed efficacy) and 47% in experiment [1] (setting [14]). The inhibition of growth at 1 ppm came out at 1% in the experiment with Septoria tritici (Table V.4, component B alone); 9% in experiment [1] (setting [8]); 38% in the experiment on Leptosphaeria nodorum (setting [9]).

As for `CC(Cc1ccc(C(C)(C)C)cc1)CN1C[C@@H](C)O[C@@H](C)C1` (some centres unmarked) [Fenpropimorph, fenpropimorph], the results for the inhibition of growth at 1 ppm (in the experiment on Pyricularia oryzae (setting [4]); in experiment [1] (setting [8])) were 8% and 19%, respectively. The inhibition of growth at […] with Botrytis cinerea (setting [5]) is 29%; in the experiment on Septoria tritici (setting [10]), 0%; in experiment [1] (setting [7]), 5%.

In the case of `CO/N=C(/C1=NOCCO1)c1ccccc1Oc1ncnc(Oc2ccccc2Cl)c1F` [Fluoxastrobin, fluoxastrobin], the inhibition of growth at […] with Septoria tritici (setting [6]) worked out at 3%; in the experiment on Septoria tritici (setting [10]), 32%; in experiment [1] (setting [16]), 51%; with Leptosphaeria nodorum (setting [11]), 38%.

For the compound `O=C1c2ccccc2C(=O)N1SC(Cl)(Cl)Cl` [Folpet, folpet], the inhibition of growth at 1 ppm with Pyricularia oryzae (setting [4]) is 14%; in the experiment on Botrytis cinerea (setting [2]), 13%; in the experiment with Septoria tritici (Table V.4, component B alone), 70%; in experiment [1] (setting [8]) it was 20%; in the experiment on Leptosphaeria nodorum (setting [9]), 40%.

Take `CNC(=O)c1ccc(-c2noc(C(F)(F)F)n2)cc1` [I.A, N-methyl-4-[5-(trifluoromethyl)-1,2,4-oxadiazol-3-yl]benzamide]: the inhibition of growth at 1 ppm with Pyricularia oryzae (setting [4]) amounted to 6%; with Septoria tritici (Table V.7, I.A alone), 0%; with Leptosphaeria nodorum (setting [9]) it was 6%. The inhibition of growth at 4 ppm with Pyricularia oryzae (setting [4]) was 12%; in the experiment on Botrytis cinerea (Botrytis cinerea, 168 h, I.A alone, 4 ppm, read-out: Observed efficacy), 1%; in the experiment on Septoria tritici (Table V.7, I.A alone, 4 ppm), 8%; in the experiment with Leptosphaeria nodorum (setting [9]), 14%. Further, the inhibition of growth at 16 ppm with Pyricularia oryzae (setting [4]) amounted to 38%; in the experiment on Botrytis cinerea (Botrytis cinerea, 168 h, I.A alone, read-out: Observed efficacy) it was 12%; in the experiment on Septoria tritici (Table V.7, I.A alone, 16 ppm) it was 19%; in the experiment on Leptosphaeria nodorum (Parastagonospora nodorum, 168 h, 16 ppm, read-out: Observed efficacy), 27%. Moreover, the inhibition of growth at […] was 3% in the experiment on Botrytis cinerea (Botrytis cinerea, 168 h, I.A alone, 0.25 ppm, read-out: Observed efficacy); 3% in the experiment with Septoria tritici (Table V.7, I.A alone, 0.063 ppm); 2% with Septoria tritici (Table V.7, I.A alone, 0.25 ppm); 2% in experiment [1] (Colletotrichum orbiculare, 0.00025 ppm, read-out: Observed efficacy); 2% in experiment [1] (setting [15]); 71% in experiment [1] (setting [16]). Besides, the inhibition of growth at […] in the experiment with Leptosphaeria nodorum (setting [3]) turned out to be 3%. Moreover, the inhibition of growth at 0.001 ppm in experiment [1] (Colletotrichum orbiculare, 0.001 ppm, read-out: Observed efficacy) came out at 2%. The inhibition of growth at 0.004 ppm in experiment [1] (Colletotrichum orbiculare, 0.004 ppm, read-out: Observed efficacy) turned out to be 2%.

For the compound `CC(C)c1ccc(Cl)cc1CN(C(=O)c1c(C(F)F)nn(C)c1F)C1CC1` [Isoflucypram, N-[(5-chloro-2-isopropyl-phenyl)methyl]-N-cyclopropyl-3-(difluoromethyl)-5 fluoro-1-methyl-pyrazole-4-carboxamide], the inhibition of growth at 1 ppm with Pyricularia oryzae (setting [4]) was found to be 11%; in the experiment with Septoria tritici (Table V.4, component B alone), 62%. Besides, the values for the inhibition of growth at […] in the experiment on Botrytis cinerea (setting [5]) and with Septoria tritici (setting [10]) were 53% and 61%, respectively.

As to `CCN(C)C=Nc1cc(Br)c(OC2CCC(C(C)C)CC2)nc1C` (centres unmarked) [K.1.32, N′-[5-bromo-6-(4-isopropylcyclohexoxy)-2-methyl-3-pyridyl]-N-ethyl-N-methyl-formamidine], the inhibition of growth at […] in the experiment with Septoria tritici (setting [10]) was 0%; in experiment [1] (setting [7]) it was 26%; in the experiment with Leptosphaeria nodorum (setting [11]), 40%. Moreover, the inhibition of growth at 1 ppm in the experiment on Septoria tritici (Table V.4, component B alone) is 0%.

Regarding `CC(O)(Cn1cncn1)c1ccc(Oc2ccc(Cl)cc2)cc1C(F)(F)F` (centres unmarked) [Mefentrifluconazol, mefentrifluconazole], the Observed efficacy in experiment [1] (0.001 ppm) is 1; with Leptosphaeria nodorum (0.004 ppm), 53.

As to `CNC(=O)/C(=N/OC)c1ccccc1Oc1ccccc1` [Metominostrobin, metominostrobin], the inhibition of growth at 1 ppm with Pyricularia oryzae (setting [4]) is 59%; in the experiment on Septoria tritici (Table V.4, component B alone), 46%; in the experiment with Leptosphaeria nodorum (setting [9]), 43%.

For the compound `COc1cc(C)c(C(=O)c2c(OC)ccc(Br)c2C)c(OC)c1OC` [Metrafenon], the Observed efficacy in the experiment with Pyricularia oryzae (4 ppm) is reported as 5; in the experiment on Pyricularia oryzae (16 ppm), 21; in the experiment on Septoria tritici (setting [12]), 1; in the experiment on Septoria tritici (setting [13]), 1.
